Patent US10858362B2, “Imidazopyrazinones as PDE1 inhibitors” (H. Lundbeck A/S, priority 2015, dated 2020)
pIC50: −log10 of the molar value.

Columns and labels:
Type in all cases: biochemical
[1] = molecular target: PDE1A (Homo sapiens (Human), UniProt P54750); assay: PDE1 inhibition assay, PDE1A; conditions: for pIC50: 15 nM tritium labelled cAMP; for inhibition at 10 µM: read-out: PDE1A, % inhibition (at 10 μM)
Description: (§1) Reactions were initiated by addition of the cyclic nucleotide substrate, and reactions were allowed to proceed for 1 h at room temperature before being terminated through mixing with 20 μL (0.2 mg) yttrium silicate SPA beads (PerkinElmer).

[2] = molecular target: PDE9 (Homo sapiens (Human), UniProt O76083); assay: PDE9 inhibition assay
How it was run: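 SPA radiometric read-out: after a 1 hr reaction, yttrium silicate beads were added, allowed to settle 1 hr in the dark and counted. Substrate 10 nM ^3H-cAMP, PDE9 amount giving 20-25% conversion, buffer 50 mM HEPES pH 7.6/10 mM MgCl2/0.02% Tween20, varying inhibitor amounts.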

[3] = molecular target: PDE1B (Homo sapiens (Human), UniProt Q01064); assay: PDE1 inhibition assay, PDE1B; conditions: for pIC50: 15 nM tritium labelled cAMP; for inhibition at 10 µM: read-out: PDE1B, % inhibition (at 10 μM)
Description: as §1, with “(PerkinElmer). The beads were allowed to settle for 1 h in the dark before the plates were counted in a Wallac 1450 Microbeta counter.” for “(PerkinElmer).”

[4] = molecular target: PDE1C (Homo sapiens (Human), UniProt Q14123); assay: PDE1 inhibition assay, PDE1C; conditions: for pIC50: 15 nM tritium labelled cAMP
Description: as §1, with “(PerkinElmer). The beads were allowed to settle for 1 h in the dark before the plates were counted in a Wallac 1450 Microbeta counter.” for “(PerkinElmer).”

Chain of PDE1B (Q01064 whole entry): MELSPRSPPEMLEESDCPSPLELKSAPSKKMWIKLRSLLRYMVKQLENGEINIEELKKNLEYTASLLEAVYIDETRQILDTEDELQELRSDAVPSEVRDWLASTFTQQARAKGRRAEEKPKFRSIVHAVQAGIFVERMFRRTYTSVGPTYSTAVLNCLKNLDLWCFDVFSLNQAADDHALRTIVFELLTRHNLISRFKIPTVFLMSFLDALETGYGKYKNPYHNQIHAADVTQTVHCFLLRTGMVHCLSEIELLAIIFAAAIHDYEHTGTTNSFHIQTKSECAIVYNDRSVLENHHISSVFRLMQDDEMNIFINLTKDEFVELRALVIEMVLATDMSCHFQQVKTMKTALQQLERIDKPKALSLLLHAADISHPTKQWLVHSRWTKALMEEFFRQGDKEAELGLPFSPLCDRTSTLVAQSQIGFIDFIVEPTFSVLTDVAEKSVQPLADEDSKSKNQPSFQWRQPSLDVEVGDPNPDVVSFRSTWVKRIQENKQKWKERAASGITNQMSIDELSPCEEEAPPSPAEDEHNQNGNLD
Chain of PDE9 (O76083 whole entry): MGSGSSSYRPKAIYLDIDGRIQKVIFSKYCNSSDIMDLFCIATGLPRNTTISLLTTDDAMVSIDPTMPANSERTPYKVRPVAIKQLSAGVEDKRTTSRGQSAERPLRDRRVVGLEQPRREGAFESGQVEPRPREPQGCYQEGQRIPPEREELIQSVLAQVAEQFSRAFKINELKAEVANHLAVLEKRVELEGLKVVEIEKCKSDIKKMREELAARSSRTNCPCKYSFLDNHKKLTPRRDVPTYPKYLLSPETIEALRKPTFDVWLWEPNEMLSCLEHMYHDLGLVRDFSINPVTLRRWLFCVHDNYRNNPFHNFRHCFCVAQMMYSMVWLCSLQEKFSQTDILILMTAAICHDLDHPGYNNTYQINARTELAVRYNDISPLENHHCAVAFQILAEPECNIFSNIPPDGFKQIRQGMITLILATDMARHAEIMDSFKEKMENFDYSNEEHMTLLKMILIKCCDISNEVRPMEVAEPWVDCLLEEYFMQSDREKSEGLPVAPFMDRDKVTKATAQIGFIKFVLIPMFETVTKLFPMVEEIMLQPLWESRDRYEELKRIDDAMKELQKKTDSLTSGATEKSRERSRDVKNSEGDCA
Chain of PDE1C (Q14123 whole entry): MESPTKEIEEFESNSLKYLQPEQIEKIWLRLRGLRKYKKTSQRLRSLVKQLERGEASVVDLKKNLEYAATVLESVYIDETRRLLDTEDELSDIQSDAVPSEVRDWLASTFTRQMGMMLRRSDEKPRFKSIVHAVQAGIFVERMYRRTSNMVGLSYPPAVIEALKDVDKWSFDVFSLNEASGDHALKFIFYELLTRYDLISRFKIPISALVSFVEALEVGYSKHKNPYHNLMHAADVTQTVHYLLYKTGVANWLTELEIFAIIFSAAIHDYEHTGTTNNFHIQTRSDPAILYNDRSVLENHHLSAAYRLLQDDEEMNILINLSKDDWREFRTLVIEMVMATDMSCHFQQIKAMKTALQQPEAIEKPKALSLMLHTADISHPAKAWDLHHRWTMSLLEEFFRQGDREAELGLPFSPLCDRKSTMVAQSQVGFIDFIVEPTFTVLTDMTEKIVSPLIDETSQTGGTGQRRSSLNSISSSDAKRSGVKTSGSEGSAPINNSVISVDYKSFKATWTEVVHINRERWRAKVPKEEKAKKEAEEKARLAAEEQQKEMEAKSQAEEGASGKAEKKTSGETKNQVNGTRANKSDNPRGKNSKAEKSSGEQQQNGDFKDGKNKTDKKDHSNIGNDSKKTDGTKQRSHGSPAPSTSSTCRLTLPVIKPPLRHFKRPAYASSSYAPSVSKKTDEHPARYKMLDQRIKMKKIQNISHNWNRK
Chain of PDE1A (P54750 whole entry): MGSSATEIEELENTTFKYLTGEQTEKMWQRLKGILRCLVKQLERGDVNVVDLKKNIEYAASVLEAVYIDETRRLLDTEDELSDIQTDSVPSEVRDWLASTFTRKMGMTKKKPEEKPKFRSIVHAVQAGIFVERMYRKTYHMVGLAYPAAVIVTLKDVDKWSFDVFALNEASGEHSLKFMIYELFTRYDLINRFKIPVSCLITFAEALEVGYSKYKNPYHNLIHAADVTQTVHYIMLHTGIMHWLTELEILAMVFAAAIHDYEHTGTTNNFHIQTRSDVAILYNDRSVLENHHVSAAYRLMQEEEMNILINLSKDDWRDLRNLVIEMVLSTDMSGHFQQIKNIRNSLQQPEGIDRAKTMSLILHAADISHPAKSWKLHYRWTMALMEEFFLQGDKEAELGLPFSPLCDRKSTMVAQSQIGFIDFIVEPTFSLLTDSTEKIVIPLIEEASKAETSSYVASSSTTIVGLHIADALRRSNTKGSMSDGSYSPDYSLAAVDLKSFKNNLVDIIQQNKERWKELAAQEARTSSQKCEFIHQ

pIC50 [1] | inhibition at 10 µM [2] [%] | pIC50 [3] | pIC50 [4] | inhibition at 10 µM [1] [%] | inhibition at 10 µM [3] [%] | inhibition at 10 µM ([4]; read-out: PDE1C, % inhibition (at 10 μM)) [%] | Structure (SMILES)
5.63 | -13 | 6.30 | 5.76 | – | – | – | CCn1c(C)cn2c(C3CCOCC3)ncc2c1=O [Example 59, 7-ethyl-6-methyl-3-(tetrahydro-2H-pyran-4-yl)imidazo[1,5-a]pyrazin-8(7H)-one]
6.09 | -13 | 6.66 | 6.37 | – | – | – | CCCn1c(C)cn2c(C3CCOCC3)ncc2c1=O [Example 60, 6-methyl-7-propyl-3-(tetrahydro-2H-pyran-4-yl)imidazo[1,5-a]pyrazin-8(7H)-one]
– | 4 | – | – | 4 | 50 | 47 | Cc1cn2c(C3CCOCC3)ncc2c(=O)n1C(C)C [Example 61, 7-isopropyl-6-methyl-3-(tetrahydro-2H-pyran-4-yl)imidazo[1,5-a]pyrazin-8(7H)-one]
5.97 | 7 | 6.25 | 7.03 | – | – | – | Cc1cn2c(C3CCOCC3)ncc2c(=O)n1CCC(C)C [Example 62, 7-isopentyl-6-methyl-3-(tetrahydro-2H-pyran-4-yl)imidazo[1,5-a]pyrazin-8(7H)-one]
6.74 | -3 | 7.09 | 7.77 | – | – | – | Cc1cn2c(C3CCOCC3)ncc2c(=O)n1CC1CCCC1 [Example 63, 7-(cyclopentylmethyl)-6-methyl-3-(tetrahydro-2H-pyran-4-yl)imidazo[1,5-a]pyrazin-8(7H)-one]
6.20 | 11 | 6.28 | 6.99 | – | – | – | Cc1cn2c(C3CCOCC3)ncc2c(=O)n1Cc1ccccc1C#N [Example 64, 2-((6-methyl-8-oxo-3-(tetrahydro-2H-pyran-4-yl)imidazo[1,5-a]pyrazin-7(8H)-yl)methyl)benzonitrile]
8.00 | 11 | 8.22 | 8.30 | – | – | – | Cc1cn2c(C3CCOCC3)ncc2c(=O)n1CC1CCCCCC1 [Example 65, 7-(cycloheptylmethyl)-6-methyl-3-(tetrahydro-2H-pyran-4-yl)imidazo[1,5-a]pyrazin-8(7H)-one]
6.63 | 10 | 7.06 | 6.51 | – | – | – | CO[C@H]1CC[C@@H](Cn2c(C)cn3c(C4CCOCC4)ncc3c2=O)CC1 [Example 67, 7-(((cis)-4-methoxycyclohexyl)methyl)-6-methyl-3-(tetrahydro-2H-pyran-4-yl)imidazo[1,5-a]pyrazin-8(7H)-one]
6.49 | 5 | 6.90 | 5.73 | – | – | – | CO[C@H]1CC[C@H](Cn2c(C)cn3c(C4CCOCC4)ncc3c2=O)CC1 [Example 68, 7-(((trans)-4-methoxycyclohexyl)methyl)-6-methyl-3-(tetrahydro-2H-pyran-4-yl)imidazo[1,5-a]pyrazin-8(7H)-one]
7.89 | 2 | 8.10 | 7.62 | – | – | – | COc1ccc(Cn2c(C)cn3c(C4CCOCC4C)ncc3c2=O)cc1 (stereo not shown) [Example 69, 7-(4-methoxybenzyl)-6-methyl-3-(3-methyltetrahydro-2H-pyran-4-yl)imidazo[1,5-a]pyrazin-8(7H)-one]
7.54 | -11 | 7.77 | 7.55 | – | – | – | COc1ccc(Cn2c(C)cn3c([C@@]4(C)C[C@@H]5CC[C@H]4O5)ncc3c2=O)cc1 [Example 70, 7-(4-methoxybenzyl)-6-methyl-3-((1R,2R,4S)-2-methyl-7-oxabicyclo[2.2.1]heptan-2-yl)imidazo[1,5-a]pyrazin-8(7H)-one]
6.68 | 13 | 6.62 | 6.27 | – | – | – | COc1ccc(Cn2c(C)cn3c([C@@H](C)c4ccccc4)ncc3c2=O)cc1 [Example 71, (S)-7-(4-methoxybenzyl)-6-methyl-3-(1-phenylethyl)imidazo[1,5-a]pyrazin-8(7H)-one]
7.05 | 9 | 7.92 | 7.37 | – | – | – | COc1ccc(Cn2c(C)cn3c([C@H](C)c4ccccc4)ncc3c2=O)cc1 [Example 72, (R)-7-(4-methoxybenzyl)-6-methyl-3-(1-phenylethyl)imidazo[1,5-a]pyrazin-8(7H)-one]
8.30 | -19 | 8.70 | 8.52 | – | – | – | COc1ccc(Cn2c(C)cn3c(C4CCc5ccc(Cl)cc54)ncc3c2=O)cc1 (stereo not shown) [Example 74, 3-(6-chloro-2,3-dihydro-1H-inden-1-yl)-7-(4-methoxybenzyl)-6-methylimidazo[1,5-a]pyrazin-8(7H)-one]
6.63 | 8 | 6.53 | 6.44 | – | – | – | COc1ccc(Cn2c(C)cn3c(C4(C)CNC(=O)C4)ncc3c2=O)cc1 (stereo not shown) [Example 75, 7-(4-methoxybenzyl)-6-methyl-3-(3-methyl-5-oxopyrrolidin-3-yl)imidazo[1,5-a]pyrazin-8(7H)-one]
6.91 | -14 | 7.36 | 6.90 | – | – | – | COCC(C)(C)c1ncc2c(=O)n(Cc3ccc(OC)cc3)c(C)cn12 [Example 76, 3-(1-methoxy-2-methylpropan-2-yl)-7-(4-methoxybenzyl)-6-methylimidazo[1,5-a]pyrazin-8(7H)-one]
5.77 | 6 | 6.19 | 6.60 | – | – | – | Cc1nc(Cn2c(C)cn3c(C4CCOCC4)ncc3c2=O)cs1 [Example 78, 6-methyl-7-((2-methylthiazol-4-yl)methyl)-3-(tetrahydro-2H-pyran-4-yl)imidazo[1,5-a]pyrazin-8(7H)-one]
6.64 | 14 | 6.95 | 7.82 | – | – | – | Cc1cn2c(C3CCOCC3)ncc2c(=O)n1Cc1ccsc1 [Example 79, 6-methyl-3-(tetrahydro-2H-pyran-4-yl)-7-(thiophen-3-ylmethyl)imidazo[1,5-a]pyrazin-8(7H)-one]
– | 18 | 5.88 | 6.30 | 72 | – | – | Cc1cn2c(C3CCOCC3)ncc2c(=O)n1Cc1cscn1 [Example 80, 6-methyl-3-(tetrahydro-2H-pyran-4-yl)-7-(thiazol-4-ylmethyl)imidazo[1,5-a]pyrazin-8(7H)-one]
– | 36 | – | 5.64 | 27 | 36 | – | Cc1noc(C)c1Cn1c(C)cn2c(C3CCOCC3)ncc2c1=O [Example 81, 7-((3,5-dimethylisoxazol-4-yl)methyl)-6-methyl-3-(tetrahydro-2H-pyran-4-yl)imidazo[1,5-a]pyrazin-8(7H)-one]
– | 7 | 5.82 | 5.99 | 67 | – | – | Cc1cc(Cn2c(C)cn3c(C4CCOCC4)ncc3c2=O)no1 [Example 82, 6-methyl-7-((5-methylisoxazol-3-yl)methyl)-3-(tetrahydro-2H-pyran-4-yl)imidazo[1,5-a]pyrazin-8(7H)-one]
5.35 | -4 | 5.64 | 5.79 | – | – | – | Cc1cc(Cn2c(C)cn3c(C4CCOCC4)ncc3c2=O)on1 [Example 83, 6-methyl-7-((3-methylisoxazol-5-yl)methyl)-3-(tetrahydro-2H-pyran-4-yl)imidazo[1,5-a]pyrazin-8(7H)-one]
6.20 | -5 | 6.99 | 6.47 | – | – | – | COc1ccc(Cn2c(C)cn3c(C4CC(C)OC(C)C4)ncc3c2=O)cc1 (stereo not shown) [Example 84, 3-(2,6-dimethyltetrahydro-2H-pyran-4-yl)-7-(4-methoxybenzyl)-6-methylimidazo[1,5-a]pyrazin-8(7H)-one]
6.92 | 7 | 7.49 | 7.49 | – | – | – | CCCc1ncc2c(=O)n(CC3CCCCC3)c(C)cn12 [Example 85, 7-(cyclohexylmethyl)-6-methyl-3-propylimidazo[1,5-a]pyrazin-8(7H)-one]
6.71 | -11 | 6.93 | 6.67 | – | – | – | COc1ccc(Cn2c(C)cn3c(C(C)(C)O)ncc3c2=O)cc1 [Example 86, 3-(2-hydroxypropan-2-yl)-7-(4-methoxybenzyl)-6-methylimidazo[1,5-a]pyrazin-8(7H)-one]
6.32 | -32 | 6.51 | 6.26 | – | – | – | COc1ccc(Cn2c(C)cn3c(C4CCNC(=O)CC4)ncc3c2=O)cc1 (stereo not shown) [Example 88, 7-(4-methoxybenzyl)-6-methyl-3-(7-oxoazepan-4-yl)imidazo[1,5-a]pyrazin-8(7H)-one]
– | 1 | 6.89 | 6.52 | 65 | – | – | COc1ccc(Cn2c(C)cn3c(C4COC(C)C4)ncc3c2=O)cc1 (stereo not shown) [Example 89, 7-(4-methoxybenzyl)-6-methyl-3-(5-methyltetrahydrofuran-3-yl)imidazo[1,5-a]pyrazin-8(7H)-one]
7.47 | 10 | 7.82 | 7.64 | – | – | – | COc1ccc(Cn2c(C)cn3c(C(C)c4nc(C)cs4)ncc3c2=O)cc1 (stereo not shown) [Example 90, 7-(4-methoxybenzyl)-6-methyl-3-(1-(4-methylthiazol-2-yl)ethyl)imidazo[1,5-a]pyrazin-8(7H)-one]
